Data from patent US20250206758A1, “SUBSTITUTED BRIDGED RING INHIBITOR, PREPARATION METHOD THEREFOR AND APPLICATION THEREOF” (SUZHOU ZELGEN BIOPHARMACEUTICALS CO., LTD., priority 2022, published 2025).
Blank lines part the entries; values can stand above or below the compound they belong to.

How the values were obtained:
[1] = test system: ERK phosphorylation in KRAS^G12D mutant cells (AGS); assay: AGS ERK phosphorylation inhibition experiment; format: cell-based; conditions: 1 hour compound, hEGF 10 minutes
Protocol: (§1) KRAS^G12D mutant cells (such as GP2D, AGS, etc.) were seeded in a 384-well plate and cultured overnight in a 37° C., 5% CO2 incubator.
(§2) 200 nL of diluted compound was added with Echo 500 to a final DMSO concentration of 0.5%, and cultured in a 37° C., 5% CO2 incubator for 1 hour. Then hEGF was added for acting for 10 minutes.
(§3) The culture medium was discarded, and then cell fixative was added to fix the cells.
(§4) The cells were washed once with PBS, and then incubated with cold 100% methanol.
(§5) Methanol was removed and the cells were washed with PBS.
(§6) PBS was removed, and each well was added with Li-Cor blocking buffer, and blocked at room temperature for 1 hr.
(§7) The blocking solution was removed, and primary antibody mixture was added to each well, and incubated at […] 4° C. overnight.
(§8) The primary antibody mixture was removed, and the cells were washed by adding PBST for 3 times.
(§9) Secondary antibody mixture was added and incubated at room temperature in the dark for 45 min.
(§10) The secondary antibody mixture was removed, and the cells were washed by adding PBST for 3 times. Finally, PBST was suctioned out, and the plate was centrifuged upside down at 1000 rpm for 1 min.
(§11) The plate was read by Odyssey CLx.

[2] = test system: ERK phosphorylation in KRAS^G12D mutant cells (GP2D); assay: GP2D ERK phosphorylation inhibition experiment; format: cell-based; conditions: 1 hour compound, hEGF 10 minutes
Protocol: as §1, §2, §3, §4, §5, §6, §7, §8, §9, §10, §11

AGS = assay: Cell proliferation inhibition, AGS (CellTiter-Glo 3D, 7 days); format: cell-based; conditions: Homo sapiens, 168 h
Protocol: • (a) Resuscitating cells in T75 cell culture flask: • (b) When the cell confluence reaches 80-90%, subculturing the cells.
The diluted test compound was added to a 384-well cell culture plate with a nanoliter pipetting system, and duplicate wells were set up. An equal volume of culture medium was added to the positive control group; and an equal volume of DMSO was added to the negative control group, then centrifugation was conducted at 1000 rpm for 1 min at room temperature.
Cells were inoculated into a) 384-well culture plate, with an equal volume of cells added to the negative control group, and only an equal volume of culture medium added to the positive control group. The plate was centrifuged at 1000 rpm for 1 min at room temperature, and the final DMSO concentration of the compound was 0.5% at last. The plate was placed in a 37° C., 5% CO2 constant temperature incubator for 7 days.
20 μL/well of CellTiter-Glo® 3D to b) was added to 384-well cell culture plate, and the plate was shook at 320 rpm for 20 min in the dark, and incubated at room temperature in the dark for 2 hrs.
The luminescence value was read using an Envision multi-functional microplate reader.
The inhibition rate (IR) of the test compound was calculated using the following formula: IR (%)=(1−(RLU compound−RLU blank control)/(RLU meidum control−RLU blank control))*100%. The inhibition rates of different concentrations of compounds were calculated in Excel, and then the inhibition curves were plotted and the related parameters (including the minimum inhibition rate, maximum inhibition rate and IC50) were calculated using GraphPad Prism software.

GP2D = assay: Cell proliferation inhibition, GP2D (CellTiter-Glo 3D, 7 days); format: cell-based; conditions: 168 h
How it was run: (§12)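 Cells exposed to compound (final DMSO 0.5%) in duplicate for 7 days at 37 °C, 5% CO2, then CellTiter-Glo 3D added with 20 min shaking and 2 h dark incubation before luminescence. Inhibition normalized to medium and blank controls; IC50, minimum and maximum inhibition from curve fits.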

[3] = Pharmacokinetic test evaluation in mice, oral; conditions: male ICR mice, oral 30 mg/kg, plasma
Protocol: Male ICR mice, weighing 22-24 g, were fasted overnight and orally administered with 30 mg/kg of a solution of the compound of the present invention or the control compound [10% DMSO+60% PEG400+30% aqueous solution]. Blood was collected at 0.25, 0.5, 1.0, 2.0, 4.0, 6.0, 8.0, 12.0 and 24 h after administration of the compound of the present invention respectively, and the concentration of the compound of the present invention or the control compound in plasma was determined by LC/MS/MS.

AsPC-1 = assay: Cell proliferation inhibition, AsPC-1 (CellTiter-Glo 3D, 7 days); format: cell-based; conditions: Homo sapiens, ASPC1, 168 h; AsPC-1, 7 days
How it was run: as §12

SMILES: C#Cc1c(F)ccc2cc(O)cc(-c3ncc4c(N5C[C@H]6CC[C@@H](C5)N6)nc(OC[C@@]56CCCN5[C@@H](COC)CC6)nc4c3F)c12 [Example 1 Isomer 1B, 4-(4-((1R,5S)-3,8-diazabicyclo[3.2.1]octan-3-yl)-8-fluoro-2-((3R,7aS)-(3-(methoxymethyl)tetrahydro-1H-pyrrolizin-7a(5H)-yl)methoxy)pyridino[4,3-d]pyrimidin-7-yl)-5-ethynyl-6-fluoronaphthalen-2-ol]
IC50 ([1]; Homo sapiens): 3.76 nM
IC50 [2]: 2.1 nM

IC50 (AGS): 5.15 nM
AUC0-∞ [3]: BLOQ
AUC(0-t) [3]: BLOQ
Cmax [3]: BLOQ
IC50 (AsPC-1): 6.77 nM
SMILES: C#Cc1c(F)ccc2cc(O)cc(-c3ncc4c(N5CC6CCC(C5)N6)nc(OC[C@@]56CCCN5C[C@H](F)C6)nc4c3F)c12 [MRTX1133, reference compound]
IC50 (GP2D): 1.28 nM

SMILES: C#Cc1c(F)ccc2cc(O)cc(-c3ncc4c(N5C[C@H]6CC[C@@H](C5)N6)nc(OC[C@]56CCCN5[C@@H](COC)CC6)nc4c3F)c12 [Example 1 Isomer 2A, 4-(4-((1R,5S)-3,8-diazabicyclo[3.2.1]octan-3-yl)-8-fluoro-2-((3R,7aR)-(3-(methoxymethyl)tetrahydro-1H-pyrrolizin-7a(5H)-yl)methoxy)pyridino[4,3-d]pyrimidin-7-yl)-5-ethynyl-6-fluoronaphthalen-2-ol]
IC50 ([1]; Homo sapiens): 19 nM

SMILES: C#Cc1c(F)ccc2cc(O)cc(-c3ncc4c(N5C[C@H]6CC[C@@H](C5)N6)nc(OC[C@]56CCCN5[C@H](COC)CC6)nc4c3F)c12 [Example 1 Isomer 1A, 4-(4-((1R,5S)-3,8-diazabicyclo[3.2.1]octan-3-yl)-8-fluoro-2-((3S,7aR)-(3-(methoxymethyl)tetrahydro-1H-pyrrolizin-7a(5H)-yl)methoxy)pyridino[4,3-d]pyrimidin-7-yl)-5-ethynyl-6-fluoronaphthalen-2-ol]
IC50 ([1]; Homo sapiens): 9.67 nM
IC50 [2]: 2.6 nM

IC50 [1]: 10.6 nM
SMILES: C#Cc1c(F)ccc2cc(O)cc(-c3ncc4c(N5C[C@H]6CC[C@@H](C5)N6)nc(OCC56CCCN5CC5(C6)CC5(F)F)nc4c3F)c12 (single isomer, unassigned) [Example 16A]

SMILES: C#Cc1c(F)ccc2cc(O)cc(-c3ncc4c(N5C[C@H]6CC[C@@H](C5)N6)nc(OC[C@@]56CCCN5[C@H](COC)CC6)nc4c3F)c12 [Example 1 Isomer 2B, 4-(4-((1R,5S)-3,8-diazabicyclo[3.2.1]octan-3-yl)-8-fluoro-2-((3S,7aS)-(3-(methoxymethyl)tetrahydro-1H-pyrrolizin-7a(5H)-yl)methoxy)pyridino[4,3-d]pyrimidin-7-yl)-5-ethynyl-6-fluoronaphthalen-2-ol]
IC50 ([1]; Homo sapiens): 139 nM

SMILES: C#Cc1c(F)ccc2cc(O)cc(-c3ncc4c(N5CC6CCC(C5)N6)nc(OCC56CCCN5CC5(CC5)C6)nc4c3F)c12 [Example 9, 4-(4-(1R,5S)-3,8-diazabicyclo[3.2.1]octan-3-yl)-2-(dihydro-1′H,3′H-spiro[1,2′-pyrrolizin]-7a′(5′H)-yl)methoxy)-8-fluoropyridino[4,3-d]pyrimidin-7-yl)-5-ethynyl-6-fluoro-naphthalen-2-ol]
IC50 ([1]; Homo sapiens): 8.2 nM
